The results in this text go back to EP4691462A1, “SILYBIN-CONTAINING COMPOSITION” (Tianjin Tasly Sants Pharmaceutical Co., Ltd., priority 2023, dated 2024).

Molecules are shown by their SMILES.

The first experiment concerns Col1a1-Luci-reporter luciferase in LX-2 cells. As to the kind of experiment: HSCs activation model based on Col1a1-Luci-reporter luciferase in transfected LX-2 cells (Duo-Lite luciferase assay; CI by CompuSyn). The note with it: 10 µM, 20 µM, 50 µM, 12 hours. Type of experiment: cell-based, human. How it is done:
LX-2 cells were inoculated into 96-well plates and cultured to a suitable density. Then, Lipofectamine 3000 liposome transfection reagent was used to prepare transfection system. Each well was transfected with 0.1 µg plasmid, of which the Empty vector group was transfected with pEZX-FR03-hygro empty plasmid, and the Control group and other administration groups were transfected with pEZX-FR03-hygro-COL1A1-WT plasmid.
The LX-2 cell line was transfected with plasmid for 6 hours, and then the drug-containing serum-free medium containing 2.5 mM, 5 mM, and 10 mM anti-fibrosis agent Pirfenidone was replaced according to groups for incubation for 12 hours, and then tested by the Duo-LitTM Luciferase Assay System kit.
The cell culture plate to be tested was taken out into the incubator, and left at room temperature for 30 min to allow the temperature of the culture plate to be balanced to room temperature. Firefly luciferase activity was detected. The original culture medium was discarded, and added with 75 µl PBS, then added with Duo-Lite Luciferase detection reagent with the same volume as PBS, and was mixed evenly. The system was left at room temperature for 10 min to detect firefly luciferase luminescence.
The LX-2 cell line was transfected with plasmid for 6 hours, and then the drug-containing serum-free medium containing 10 µM, 20 µM, 50 µM Silybin was replaced according to groups for incubation for 12 hours, and then tested by the Duo-LitTM Luciferase Assay System kit.
The LX-2 cell line was transfected with plasmid for 6 hours, and then the drug-containing serum-free medium containing 10 µM silybin, 10 µM drug to be screened, 20 µM silybin, 20 µM drug to be screened at a mixed ratio of 1:1 was replaced according to groups for incubation for 12 hours, and then tested by the Duo-LitTM Luciferase Assay System kit.
Cell activation inhibition rate% = (Control Group Firefly- Administration Group Firefly)/ Control Group Firefly ×100%. The CI value was obtained by analysis using micro-use CompuSyn software. […]
As to `COc1cc(C2Oc3cc([C@H]4Oc5cc(O)cc(O)c5C(=O)[C@@H]4O)ccc3OC2CO)ccc1O` (stereo partly shown) [silybin], the “inhibitory effect on activation of stellate cells in vitro” value is “no significant inhibitory effect”.

The experiment is the same for the next values; noted with them: 5 mM and 10 mM, 12 hours, clear dose-dependence.
As for `Cc1ccc(=O)n(-c2ccccc2)c1` [Pirfenidone], the “expression level of luciferase” value was “significantly decreased”.

Still in this experiment, the particulars now being: named drug combined with silybin, mixed ratio 1:1, 12 hours, CI<0.90 synergistic, 0.90<CI<1.10 additive.
For the compound `OC[C@@H](O)[C@@H](O)[C@H](O)[C@H](O)CO` [D-mannitol], the CI amounted to 0.66.

For the compound `O=C(O)COC(=O)Cc1ccccc1Nc1c(Cl)cccc1Cl` [aceclofenac], the CI came out at 0.46.

As to `CCOC(=O)C1=C(COCCN)NC(C)=C(C(=O)OC)C1c1ccccc1Cl` (stereo not shown) [amlodipine], the CI came out at 0.62.

Take `CCCC1O[C@@H]2C[C@H]3[C@@H]4CCC5=CC(=O)C=C[C@]5(C)[C@H]4[C@@H](O)C[C@]3(C)[C@]2(C(=O)CO)O1` (stereo partly shown) [budesonide]: the CI was 0.91.

In the case of `COc1ccccc1OCCNCC(O)COc1cccc2[nH]c3ccccc3c12` (stereo not shown) [carvedilol], the CI came out at 0.11.

`COCCOC(=O)C1=C(C)NC(C)=C(C(=O)OC/C=C/c2ccccc2)C1c1cccc([N+](=O)[O-])c1` (stereo not shown) [cilnidipine]: the CI stood at 0.79.

`CCC(=O)O[C@]1(C(=O)CCl)[C@@H](C)C[C@H]2[C@@H]3CCC4=CC(=O)C=C[C@]4(C)[C@@]3(F)[C@@H](O)C[C@@]21C` [clobetasol propionate]: the CI was 0.86.

`COC(=O)C1=C(C)NC(C)=C(C(=O)OCCN2CCN(C(c3ccccc3)c3ccccc3)CC2)C1c1cccc([N+](=O)[O-])c1` (stereo not shown) [manidipine]: the CI was determined as 0.54.

On to `COC(=O)C1=C(C)NC(C)=C(C(=O)OCCN(C)Cc2ccccc2)C1c1cccc([N+](=O)[O-])c1` (stereo not shown) [nicardipine], for which the CI turned out to be 0.31.

As to `CCOc1ccccc1OCCN[C@H](C)Cc1ccc(OC)c(S(N)(=O)=O)c1` [tamsulosin], the CI came out at 0.50.

Turning to `CCCCC(=O)N(Cc1ccc(-c2ccccc2-c2nnn[nH]2)cc1)[C@H](C(=O)O)C(C)C` [valsartan], the CI is listed as 0.47.
